For the assay, the system named is HCV 1b-377-neo replicon cells. Nature of the assay: HCV replicon assay, HCV 1b-377-neo replicon cells (1b FRET). The conditions noted are these: Hepatitis C virus, HCV 1b-377-neo replicon cells; HCV 1b genotype; read-out: EC50 range against HCV 1b (Table 2, Range). In kind it is cell-based, Hepatitis C virus genotype 1b. The method in brief: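 Compounds were tested in genotype 1b subgenomic replicon cells carrying a neomycin marker, alongside a matched replicon line with an NS5A Y2065H substitution that confers resistance to a reference NS5A inhibitor.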

Usually EC50 stands for the concentration needed to bring the measured effect to its halfway point.

`O=C([C@@H](c1ccccc1)N1CCCCC1)N1CCC[C@H]1c1ncc(-c2ccc(-c3ccc(-c4cnc([C@@H]5CCCN5C(=O)C5(c6ccccc6)CC5)[nH]4)cc3)cc2)[nH]1` [Example 107-22, 1-((1R)-2-oxo-1-phenyl-2-((2S)-2-(5-(4′-(2-((2S)-1-((1-phenylcyclopropyl)carbonyl)-2-pyrrolidinyl)-1H-imidazol-5-yl)-4-biphenylyl)-1H-imidazol-2-yl)-1-pyrrolidinyl)ethyl)piperidine]: the EC50 was in the range of 0.001 to 0.999 nM.
Take `CN(C)Cc1ccccc1CC(=O)N1CCC[C@H]1c1ncc(-c2ccc(-c3ccc(-c4cnc([C@@H]5CCCN5C(=O)[C@@H](c5ccccc5)N5CCCCC5)[nH]4)cc3)cc2)[nH]1` [Example 107-23, N,N-dimethyl-1-(2-(2-oxo-2-((2S)-2-(5-(4′-(2-((2S)-1-((2R)-2-phenyl-2-(1-piperidinyl)acetyl)-2-pyrrolidinyl)-1H-imidazol-5-yl)-4-biphenylyl)-1H-imidazol-2-yl)-1-pyrrolidinyl)ethyl)phenyl) methanamine]: the EC50 was 0.001 to 0.999 nM.
The same measure for `Cc1cc(CC(=O)N2CCC[C@H]2c2ncc(-c3ccc(-c4ccc(-c5cnc([C@@H]6CCCN6C(=O)[C@@H](c6ccccc6)N6CCCCC6)[nH]5)cc4)cc3)[nH]2)on1` [Example 107-24, 1-((1R)-2-((2S)-2-(5-(4′-(2-((2S)-1-((3-methyl-5-isoxazolyl)acetyl)-2-pyrrolidinyl)-1H-imidazol-5-yl)-4-biphenylyl)-1H-imidazol-2-yl)-1-pyrrolidinyl)-2-oxo-1-phenylethyl) piperidine]: 0.001 to 0.999 nM.
The same measure for `Cc1nc(CC(=O)N2CCC[C@H]2c2ncc(-c3ccc(-c4ccc(-c5cnc([C@@H]6CCCN6C(=O)[C@@H](c6ccccc6)N6CCCCC6)[nH]5)cc4)cc3)[nH]2)cs1` [Example 107-25, 1-((1R)-2-((2S)-2-(5-(4′-(2-((2S)-1-((2-methyl-1,3-thiazo1-4-yl)acetyl)-2-pyrrolidinyl)-1H-imidazol-5-yl)-4-biphenylyl)-1H-imidazol-2-yl)-1-pyrrolidinyl)-2-oxo-1-phenylethyl) piperidine]: 0.001 to 0.999 nM; for `O=C(Cc1ccccc1CN1CCOCC1)N1CCC[C@H]1c1ncc(-c2ccc(-c3ccc(-c4cnc([C@@H]5CCCN5C(=O)[C@@H](c5ccccc5)N5CCCCC5)[nH]4)cc3)cc2)[nH]1` [Example 107-26, 4-(2-(2-oxo-2-((2S)-2-(5-(4′-(2-((2S)-1-((2R)-2-phenyl-2-(1-piperidinyl)acetyl)-2-pyrrolidinyl)-1H-imidazol-5-yl)-4-biphenylyl)-1H-imidazol-2-yl)-1-pyrrolidinyl)ethyl)benzyl) morpholine]: 0.001 to 0.999 nM.
For the compound `O=C(Cc1ccccc1CN1CCCC1)N1CCC[C@H]1c1ncc(-c2ccc(-c3ccc(-c4cnc([C@@H]5CCCN5C(=O)[C@@H](c5ccccc5)N5CCCCC5)[nH]4)cc3)cc2)[nH]1` [Example 107-27, 1-((1R)-2-oxo-1-phenyl-2-((2S)-2-(5-(4′-(2-((2S)-1-((2-(1-pyrrolidinylmethyl)phenyl)acetyl)-2-pyrrolidinyl)-1H-imidazol-5-yl)-4-biphenylyl)-1H-imidazol-2-yl)-1-pyrrolidinyl)ethyl)piperidine], the EC50 is 0.001 to 0.999 nM.
Turning to `O=C(Cc1ccccc1F)N1CCC[C@H]1c1ncc(-c2ccc(-c3ccc(-c4cnc([C@@H]5CCCN5C(=O)[C@@H](c5ccccc5)N5CCCCC5)[nH]4)cc3)cc2)[nH]1` [Example 107-28], the 50% effective concentration (EC50) fell in the range of 0.001 to 0.999 nM.
Regarding `CC(=O)N1CCC[C@H]1c1ncc(-c2ccc(-c3ccc(-c4cnc([C@@H]5CCCN5C(=O)[C@@H](c5ccccc5)N5CCCCC5)[nH]4)cc3)cc2)[nH]1` [Example 107-29, 1-1((1R)-2-((2S)-2-(5-(4′-(2-((2S)-1-acetyl-2-pyrrolidinyl)-1H-imidazol-5-yl)-4-biphenylyl)-1H-imidazol-2-yl)-1-pyrrolidinyl)-2-oxo-1-phenylethyl) piperidine], the concentration for a half-maximal effect (EC50) fell in the range of 0.001 to 0.999 nM.
The same measure for `O=C(Cc1cccs1)N1CCC[C@H]1c1ncc(-c2ccc(-c3ccc(-c4cnc([C@@H]5CCCN5C(=O)[C@@H](c5ccccc5)N5CCCCC5)[nH]4)cc3)cc2)[nH]1` [Example 107-30, 1-((1R)-2-oxo-1-phenyl-2-((2S)-2-(5-(4′-(2-((2S)-1-(2-thienylacetyl)-2-pyrrolidinyl)-1H-imidazol-5-yl)-4-biphenylyl)-1H-imidazol-2-yl)-1-pyrrolidinyl)ethyl)piperidine]: 0.001 to 0.999 nM; for `CN(C)[C@@H](C(=O)N1CCC[C@H]1c1ncc(-c2ccc(-c3ccc(-c4cnc([C@@H]5CCCN5C(=O)[C@@H](c5ccccc5F)N(C)C)[nH]4)cc3)cc2)[nH]1)c1ccccc1` [Example 107-31, (1R)-2-((2S)-2-(5-(4′-(2-((2S)-1-((2R)-2-(dimethylamino)-2-(2-fluorophenyl)acetyl)-2-pyrrolidinyl)-1H-imidazol-5-yl)-4-biphenylyl)-1H-imidazol-2-yl)-1-pyrrolidinyl)-N,N-dimethyl-2-oxo-1-phenylethanamine]: 0.001 to 0.999 nM.
With `CO[C@@H](C(=O)N1CCC[C@H]1c1ncc(-c2ccc(-c3ccc(-c4cnc([C@@H]5CCCN5C(=O)[C@@H](c5ccccc5F)N(C)C)[nH]4)cc3)cc2)[nH]1)c1ccccc1` [Example 107-32, (1R)-1-(2-fluorophenyl)-2-((2S)-2-(5-(4′-(2-((2S)-1-((2R)-2-methoxy-2-phenylacetyl)-2-pyrrolidinyl)-1H-imidazol-5-yl)-4-biphenylyl)-1H-imidazol-2-yl)-1-pyrrolidinyl)-N,N-dimethyl-2-oxoethanamine], the EC50 was in the range of 0.001 to 0.999 nM.
The same measure for `CN(C)[C@@H](C(=O)N1CCC[C@H]1c1ncc(-c2ccc(-c3ccc(-c4cnc([C@@H]5CCCN5C(=O)C5(c6ccccc6)CC5)[nH]4)cc3)cc2)[nH]1)c1ccccc1F` [Example 107-34, (1R)-1-(2-fluorophenyl)-N,N-dimethyl-2-oxo-2-((2S)-2-(5-(4′-(2-((2S)-1-((1-phenylcyclopropyl)carbonyl)-2-pyr-rolidinyl)-1H-imidazol-5-yl)-4-biphenylyl)-1H-imidazol-2-yl)-1-pyrrolidinyl)ethanamine]: 0.001 to 0.999 nM; for `CN(C)[C@@H](C(=O)N1CCC[C@H]1c1ncc(-c2ccc(-c3ccc(-c4cnc([C@@H]5CCCN5C(=O)[C@@H](c5ccccc5Cl)N(C)C)[nH]4)cc3)cc2)[nH]1)c1ccccc1` [Example 107-35, (1R)-1-(2-chloro-phenyl)-2-((2S)-2-(5-(4′-(2-((2S)-1-((2R)-2-(dimethylamino)-2-phenylacetyl)-2-pyrrolidinyl)-1H-imidazol-5-yl)-4-biphenylyl)-1H-imidazol-2-yl)-1-pyrrolidinyl)-N,N-dimethyl-2-oxoethanamine]: 0.001 to 0.999 nM; for `COC(=O)N[C@@H](C(=O)N1CCC[C@H]1c1ncc(-c2ccc(-c3ccc(-c4cnc([C@@H]5CCCN5C(=O)[C@@H](c5ccccc5Cl)N(C)C)[nH]4)cc3)cc2)[nH]1)c1ccccc1` [Example 107-36, methyl ((1R)-2-((2S)-2-(5-(4′-(2-((2S)-1-(2R)-2-(2-chlorophenyl)-2-(dimethylamino)acetyl)-2-pyrrolidinyl)-1H-imidazol-5-yl)-4-biphenylyl)-1H-imidazol-2-yl)-1-pyrrolidinyl)-2-oxo-1-phenylethyl) carbamate]: 0.001 to 0.999 nM.
The same measure for `CO[C@@H](C(=O)N1CCC[C@H]1c1ncc(-c2ccc(-c3ccc(-c4cnc([C@@H]5CCCN5C(=O)[C@@H](c5ccccc5Cl)N(C)C)[nH]4)cc3)cc2)[nH]1)c1ccccc1` [Example 107-37, (1R)-1-(2-chlorophenyl)-2-((2S)-2-(5-(4′-(2-((2S)-1-((2R)-2-methoxy-2-phenylacetyl)-2-pyrrolidinyl)-1H-imidazol-5-yl)-4-biphenylyl)-1H-imidazol-2-yl)-1-pyrrolidinyl)-N,N-dimethyl-2-oxoethanamine]: 0.001 to 0.999 nM.
The same measure for `CN(C)[C@@H](C(=O)N1CCC[C@H]1c1ncc(-c2ccc(-c3ccc(-c4cnc([C@@H]5CCCN5C(=O)[C@H]5CCCO5)[nH]4)cc3)cc2)[nH]1)c1ccccc1Cl` [Example 107-38, (1R)-1-(2-chloro-phenyl)-N,N-dimethyl-2-oxo-2-((2S)-2-(5-(4′-(2-((2S)-1-((2R)-tetrahydro-2-furanylcarbonyl)-2-pyrrolidinyl)-1H-imidazol-5-yl)-4-biphenylyl)-1H-imidazol-2-yl)-1-pyrrolidinyl) ethanamine]: 0.001 to 0.999 nM.
Turning to `COC(=O)N[C@@H](C(=O)N1CCC[C@H]1c1ncc(-c2ccc(-c3ccc(-c4cnc([C@@H]5CCCN5C(=O)[C@H]5CCCO5)[nH]4)cc3)cc2)[nH]1)c1ccccc1Cl` [Example 107-39, methyl ((1R)-1-(2-chlorophenyl)-2-oxo-2-((2S)-2-(5-(4′-(2-((2S)-1-((2R)-tetrahydro-2-furanylcarbonyl)-2-pyrrolidinyl)-1H-imidazol-5-yl)-4-biphenylyl)-1H-imidazol-2-yl)-1-pyrrolidinyl)ethyl) carbamate], the concentration for a half-maximal effect (EC50) lay in the range of 0.001 to 0.999 nM.
As for `COC(=O)N[C@@H](C(=O)N1CCC[C@H]1c1ncc(-c2ccc(-c3ccc(-c4cnc([C@@H]5CCCN5C(=O)[C@@H](c5ccccc5)N(C)C)[nH]4)cc3)cc2)[nH]1)c1ccccc1Cl` [Example 107-40, methyl ((1R)-1-(2-chlorophenyl)-2-((2S)-2-(5-(4′-(2-((2S)-1-((2R)-2-(dimethylamino)-2-phenylacetyl)-2-pyrrolidinyl)-1H-imidazol-5-yl)-4-biphenylyl)-1H-imidazol-2-yl)-1-pyrrolidinyl)-2-oxoethyl) carbamate], the EC50 lay within 0.001 to 0.999 nM.
Turning to `COC(=O)N[C@@H](C(=O)N1CCC[C@H]1c1ncc(-c2ccc(-c3ccc(-c4cnc([C@@H]5CCCN5C(=O)[C@H](NC(=O)OC)c5ccccc5Cl)[nH]4)cc3)cc2)[nH]1)c1ccccc1` [Example 107-41, methyl ((1R)-2-((2S)-2-(5-(4′-(2-((2S)-1-((2R)-2-(2-chlorophenyl)-2-((methoxy-carbonyl)amino)acetyl)-2-pyrrolidinyl)-1H-imidazol-5-yl)-4-biphenylyl)-1H-imidazol-2-yl)-1-pyrrolidinyl)-2-oxo-1-phenylethyl) carbamate], the EC50 is 0.001 to 0.999 nM.

The values above are taken from US8574563B2 (Bristol-Myers Squibb Company, priority 2006, dated 2013).
